Data: patent US20260207614A1, “IRAK4 DEGRADERS AND USES THEREOF” (Kymera Therapeutics, Inc., priority 2022, published 2026)

Columns and labels:
IRAK4 = target: T1, IRAK4 (Canis lupus familiaris, UniProt A0A8I3S726); experiment: In vitro IRAK4 degradation, dog PBMCs; format: cell-based; details: read-out: DC50 (IRAK4 degradation)
T1 construct: endogenous in cells; host or cells: dog PBMCs
T1 sequence (A0A8I3S726 1-460): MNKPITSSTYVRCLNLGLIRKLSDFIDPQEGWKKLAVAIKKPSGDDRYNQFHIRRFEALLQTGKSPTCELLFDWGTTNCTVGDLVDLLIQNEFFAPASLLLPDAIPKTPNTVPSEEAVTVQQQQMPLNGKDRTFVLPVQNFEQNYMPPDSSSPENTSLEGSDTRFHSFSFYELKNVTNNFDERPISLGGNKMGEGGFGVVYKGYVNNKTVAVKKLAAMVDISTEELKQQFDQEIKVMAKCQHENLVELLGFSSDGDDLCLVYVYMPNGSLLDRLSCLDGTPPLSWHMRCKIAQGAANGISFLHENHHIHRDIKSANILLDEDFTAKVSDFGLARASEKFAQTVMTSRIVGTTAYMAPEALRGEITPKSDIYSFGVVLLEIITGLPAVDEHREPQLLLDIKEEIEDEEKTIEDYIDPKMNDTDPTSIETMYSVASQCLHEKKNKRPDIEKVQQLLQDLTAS

[1] = Plasma protein binding and red blood cell partitioning; format: in vitro ADME, nonclinical species and humans
CYP3A4 = CYP3A4 (Homo sapiens, UniProt P08684); experiment: In vitro drug-drug interaction and metabolism studies, CYP3A4; format: in vitro ADME
Sequence of CYP3A4 (P08684 whole entry): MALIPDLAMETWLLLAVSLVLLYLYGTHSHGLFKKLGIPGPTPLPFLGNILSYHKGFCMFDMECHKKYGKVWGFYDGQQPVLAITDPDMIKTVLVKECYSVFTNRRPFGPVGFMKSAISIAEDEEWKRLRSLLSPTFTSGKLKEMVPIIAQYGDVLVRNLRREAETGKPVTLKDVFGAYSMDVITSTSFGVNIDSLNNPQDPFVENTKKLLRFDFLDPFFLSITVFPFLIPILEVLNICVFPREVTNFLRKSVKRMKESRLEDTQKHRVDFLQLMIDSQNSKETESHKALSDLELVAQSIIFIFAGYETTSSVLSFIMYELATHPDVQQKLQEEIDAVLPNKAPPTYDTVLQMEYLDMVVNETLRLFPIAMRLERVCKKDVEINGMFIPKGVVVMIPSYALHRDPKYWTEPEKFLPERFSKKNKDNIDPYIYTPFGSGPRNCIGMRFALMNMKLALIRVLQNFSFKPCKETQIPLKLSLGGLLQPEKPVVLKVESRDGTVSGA
Description: Metabolites generated in liver microsomes from humans were also detected in those from rat, dog, and monkey. In the in vitro drug-drug interaction studies.

clinical = details: human, in vivo
Description: The safety margin decreases as the dose increases.

[2] = Phase 1 MAD Compound A concentration in skin; format: in vivo; details: human, oral, Day 14, once daily dosing, read-out: Ctrough (pre-dose) levels in skin relative to plasma
[3] = Phase 1 Part C plasma PK in HS/AD patients; format: in vivo; details: human
Description: Part C: Part C is an open-label, multiple dose study in a single cohort of up to 20 patients with AD or HS (at least 10 patients with AD) and will commence after the completion of Part B. Part C will be conducted on both an inpatient and outpatient basis and patients will continue to be followed for safety through Day 28. The dose regimen and the requirement for patient confinement to the clinical units will be selected by the SRC from review of the safety. PK, and PD data after completion of Part B.

[4] = system: patients with atopic dermatitis (AD); experiment: Phase 1 Part C clinical efficacy in atopic dermatitis; format: in vivo, human
Description: Baseline Characteristics and Disposition: A total of 21 patients were enrolled in the trial, including 13 HS and 8 AD patients, with median age 31-40 years (13 female, 8 male). Disease severity for HS was moderate (10), severe (1) and very severe (2) and for AD was mild (1), moderate (5) and severe (2). One HS and 1 AD patient withdrew from treatment early due to personal reasons, resulting in 12 HS and 7 AD patients evaluable for PD and clinical efficacy.
AD clinical endpoints collected in the study included EASI score, Peak Pruritus NRS and vIGA-AD. Peak Pruritus NRS was used to derive Peak Pruritus NRS responder rate.

[5] = AD, n = 7, 75 mg QD fed, highest response across Days 28 through 42
[6] = AD, n = 7, deepest reduction across Days 28 through 42

Cn1c(=O)n([C@@H]2CCC(=O)NC2=O)c2cccc(C#CCOC3CCN(C[C@H]4CC[C@H](n5cc(NC(=O)c6cnn7ccc(N8C[C@H]9C[C@@H]8CO9)nc67)c(C(F)F)n5)CC4)CC3)c21 [Compound A, 5-((1R,4R)-2-oxa-5-azabicyclo[2.2.1]heptan-5-yl)-N-(3-(difluoromethyl)-1-((1r,4R)-4-((4-((3-(1-(2,6-dioxopiperidin-3-yl)-3-methyl-2-oxo-2,3-dihydro-1H-benzo[d]imidazol-4-yl)prop-2-yn-1-yl)oxy)piperidin-1-yl)methyl)cyclohexyl)-1H-pyrazol-4-yl)pyrazolo[1,5-a]pyrimidine-3-carboxamide]
DC50 (IRAK4): < 10 nM | partitioning into red blood cells [1]: did not significantly partition into red blood cells | plasma protein binding ([1]; across nonclinical species and humans): highly bound | metabolizing enzyme (CYP3A4): primarily metabolized by CYP3A4 | time dependent inhibition (TDI) of CYP3A4 (CYP3A4; in vitro): potential time dependent inhibition (TDI) | half-life (clinical): 25 to 40 h | inter-subject variability in exposure (clinical): low to moderate | AUC (clinical; po, 25 mg): 112 ng·h/mL | Cmax (clinical; po, 25 mg): 3.49 ng/mL | Tmax (clinical; po, 25 mg): 8 h | half-life (clinical; po, 25 mg): 25.2 h | AUC (clinical; po, 75 mg): 288 ng·h/mL | Cmax (clinical; po, 75 mg): 9.08 ng/mL | Tmax (clinical; po, 75 mg): 7 h | half-life (clinical; po, 75 mg): 28.7 h | AUC (clinical; po, 150 mg): 483 ng·h/mL | Cmax (clinical; po, 150 mg): 12.7 ng/mL | Tmax (clinical; po, 150 mg): 9 h | half-life (clinical; po, 150 mg): 31.6 h | AUC (clinical; po, 300 mg): 848 ng·h/mL | Cmax (clinical; po, 300 mg): 17.4 ng/mL | Tmax (clinical; po, 300 mg): 8 h | half-life (clinical; po, 300 mg): 26.6 h | AUC (clinical; po, 600 mg): 1520 ng·h/mL | Cmax (clinical; po, 600 mg): 24.2 ng/mL | Tmax (clinical; po, 600 mg): 12 h | half-life (clinical; po, 600 mg): 30.1 h | AUC (clinical; po, 1000 mg): 1950 ng·h/mL | Cmax (clinical; po, 1000 mg): 27.8 ng/mL | Tmax (clinical; po, 1000 mg): 20 h | half-life (clinical; po, 1000 mg): 40.2 h | AUC (clinical; po, 1600 mg): 1920 ng·h/mL | Cmax (clinical; po, 1600 mg): 27.3 ng/mL | Tmax (clinical; po, 1600 mg): 24 h | half-life (clinical; po, 1600 mg): 36.4 h | Kp at 14 day [2]: ~10 | exposure in fasted state as share of exposure in fed state ([3]; in vivo): about 133% | exposure in fed state as share of exposure in fasted state ([3]; in vivo): about 75% | half-life ([3]; plasma, oral, Part C, 75 mg QD fed, HS/AD patients): 44 h | EASI score reduction ([4]; AD patients, FIG. 26): up to 37% | Peak Pruritus NRS reduction ([4]; AD patients, FIG. 27): 52-63% | Peak pruritus NRS Responder rate ([4]; AD patients, FIG. 27): 57-71% | Responders: Peak Pruritis NRS, Past 24 Hours [4, 5]: 71% | Responders: Peak Pruritis NRS, Past Week [4, 5]: 57% | ΔEASI [4, 6]: −37% | ΔPeak Pruritis NRS, Past 24 Hours [4, 6]: −63% | ΔPeak Pruritis NRS, Past Week [4, 6]: −52% | disease severity in patient AD-3 ([4]; FIG. 29): from severe to mild | vIGA-AD (IGA scores) ([4]; all AD patients): stable or improved (2 of 7)
